Data on twelve compounds can be found in patent US6482948B1, “Thienopyrimidine compounds and salts thereof and process for the preparation of the same” (Nippon Soda Co., Ltd., priority 1999, dated 2002).

For test [1], the target named is T1, PDE 3 (cGMP inhibitable cAMP PDE) (Homo sapiens, UniProt Q14432).
T1 construct: from tissue; host or cells: human platelets
The test is described as follows: Phosphodiesterase inhibiting activity, PDE 3. The format is biochemical. The note with it: isozyme from human platelets; 1 μM [3H]-cAMP or [3H]-cGMP; read-out: Inhibition of PDE Activity: IC50 PDE 3. On the procedure: (§1) Pharmacological Test Example 1: Phosphodiesterase Inhibiting Activity
(§2) Cyclic nucleotide phosphodiesterases from human platelets and from the heart and kidney of a dog were eluted by the concentration gradient method with 70 to 1000 mM of sodium acetate on DEAE-cellulose column chromatography (Whatman Co. Ltd., DE-52, φ3.2×13 cm) according to the method of Thompson and others (Thompson W. J., et al., Advances in Cyclic Nucleotide Research: 10, 69-92, 1979), and separated into isozymes. PDE 5 (cGMP specific PDE) and PDE 3 (cGMP inhibitable cAMP PDE) were separated from the platelets, PDE 1 (Ca-calmodulin activatable PDE) from the heart, and PDE 4 (cGMP non-inhibitable cAMP PDE) from the kidney. The method of Thompson, et al was partially modified to measure phosphodiesterase activities: 1 μM of [3H]-cAMP or [3H]-cGMP was decomposed with phosphodiesterase. The produced 5′-AMP or 5′-GMP was decomposed to adenosine or guanosine with a snake venom (Sigma V7000). The reaction solution was added to anion exchange resin (Bio-Rad Co. Ltd., AG1-X8). Non-adsorbed adenosine or guanosine was counted by a liquid scintillation counter. A concentration causing 50% inhibition of the enzyme activity (IC50) was calculated from concentration inhibition curves.

Test [2] has as its target PDE 1 (Ca-calmodulin activatable PDE). Description: Phosphodiesterase inhibiting activity, PDE 1. In kind it is biochemical. The note with it: isozyme from dog heart; 1 μM [3H]-cAMP or [3H]-cGMP; read-out: Inhibition of PDE Activity: IC50 PDE 1. As to the method:
as §1, §2

Test [3] addresses T2, PDE 5 (cGMP specific PDE) (Homo sapiens, UniProt O76074).
T2 construct: from tissue; host or cells: human platelets
The test is described as follows: Phosphodiesterase inhibiting activity, PDE 5. The format is biochemical. The note with it: isozyme from human platelets; 1 μM [3H]-cAMP or [3H]-cGMP; read-out: Inhibition of PDE Activity: IC50 PDE 5. As to the method: as §1, §2

Test [4] deals with PDE 4 (cGMP non-inhibitable cAMP PDE). Description: Phosphodiesterase inhibiting activity, PDE 4. In kind it is biochemical. The following applies: isozyme from dog kidney; 1 μM [3H]-cAMP or [3H]-cGMP; read-out: Inhibition of PDE Activity: IC50 PDE 4. As to the method:
as §1, §2

In another test the target is T3, PDE 2 (Homo sapiens, UniProt O00408).
T3 construct: eluted by the concentration gradient method with 70 to 1000 mM of sodium acetate on DEAE-cellulose column chromatography; from tissue
T3 sequence (O00408 whole entry): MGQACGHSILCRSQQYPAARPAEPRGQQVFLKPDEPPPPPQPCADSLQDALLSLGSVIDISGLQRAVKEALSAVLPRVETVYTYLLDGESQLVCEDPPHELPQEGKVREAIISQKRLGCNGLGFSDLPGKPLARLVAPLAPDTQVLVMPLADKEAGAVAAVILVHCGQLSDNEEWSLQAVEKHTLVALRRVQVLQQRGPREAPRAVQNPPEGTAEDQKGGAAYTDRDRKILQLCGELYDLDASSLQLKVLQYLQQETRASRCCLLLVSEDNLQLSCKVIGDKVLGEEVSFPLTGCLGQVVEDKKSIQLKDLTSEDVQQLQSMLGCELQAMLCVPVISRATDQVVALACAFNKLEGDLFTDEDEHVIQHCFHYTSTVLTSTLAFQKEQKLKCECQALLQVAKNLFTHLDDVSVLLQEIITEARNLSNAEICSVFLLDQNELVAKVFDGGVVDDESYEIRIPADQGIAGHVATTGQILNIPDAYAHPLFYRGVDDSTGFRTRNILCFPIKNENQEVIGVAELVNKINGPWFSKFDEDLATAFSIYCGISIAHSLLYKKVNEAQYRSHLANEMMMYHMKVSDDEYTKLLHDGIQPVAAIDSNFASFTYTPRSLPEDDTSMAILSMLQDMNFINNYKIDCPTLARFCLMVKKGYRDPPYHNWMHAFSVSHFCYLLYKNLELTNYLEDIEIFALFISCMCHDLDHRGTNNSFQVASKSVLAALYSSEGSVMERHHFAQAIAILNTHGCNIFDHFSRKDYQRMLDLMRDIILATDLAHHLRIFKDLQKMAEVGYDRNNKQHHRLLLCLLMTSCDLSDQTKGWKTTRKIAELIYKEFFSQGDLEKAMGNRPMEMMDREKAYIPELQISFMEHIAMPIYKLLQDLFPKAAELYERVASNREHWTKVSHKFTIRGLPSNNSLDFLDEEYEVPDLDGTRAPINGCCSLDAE
Description: Phosphodiesterase inhibiting activity, PDE 2. The format is biochemical. The following applies: 1 μM [3H]-cAMP or [3H]-cGMP; source of isozyme not given; read-out: Inhibition of PDE Activity: IC50 PDE 2. As to the method:
[Worded in the source for another target; this target is reported under the same test.] as §1, §2

A further test has as its system thoracic aortas. Description: Vasodilating activity, phenylephrine-contracted thoracic aorta ring preparations (Magnus method). Also on record: species or system Sprague-Dawley male rats. The note with it: rat thoracic aorta ring preparations contracted with 1 μM phenylephrine, 37° C., drug added cumulatively. As to the method: Pharmacological Test Example 2: Vasodilating Activity
A vasodilating activity was assessed according to the method of Ken-ichi Hirata and Mitsuhiro Yokoyama (Arteriosclerosis and Hyperlipemia Research Strategies, published by Shujunsha (Japan), pages 275-277, 1996): The thoracic aortas were extracted from Sprague-Dawley male rats (weighing 180 to 360 g). After unnecessary connective tissues were removed, the aortas were cut to 5mm-long pieces to make ring strip preparations, and assessed by the Magnus method (37° C.). A nutrient solution used was a Krebs-Henseleit solution aerated with 5% carbon dioxide gas and 95% oxygen gas. Specimens were equilibrated for about 60 minutes, and then contracted by adding 1 μM of phenylephrine. 1 μM of acetylcholine was added at the second phenylepherine-induced contraction in order to confirm an endothelial cell dependent relaxation response. At the third phenylepherine-induced contraction, a drug to test was added cumulatively, and the relaxation action was observed. Drugs to test were all dissolved in DMSO to use for the tests. The tested drugs were assessed by 50% relaxation rates (EC50) obtained from vasodilation rates to respective concentrations (the maximum relaxation was measured by adding 100 μM of papaverine).

The term IC50 denotes the concentration at which inhibition is half-maximal. The EC50 is the concentration needed to bring the measured effect to its halfway point. Read a low EC50 as a more potent agent.

T1 sequence (Q14432 whole entry): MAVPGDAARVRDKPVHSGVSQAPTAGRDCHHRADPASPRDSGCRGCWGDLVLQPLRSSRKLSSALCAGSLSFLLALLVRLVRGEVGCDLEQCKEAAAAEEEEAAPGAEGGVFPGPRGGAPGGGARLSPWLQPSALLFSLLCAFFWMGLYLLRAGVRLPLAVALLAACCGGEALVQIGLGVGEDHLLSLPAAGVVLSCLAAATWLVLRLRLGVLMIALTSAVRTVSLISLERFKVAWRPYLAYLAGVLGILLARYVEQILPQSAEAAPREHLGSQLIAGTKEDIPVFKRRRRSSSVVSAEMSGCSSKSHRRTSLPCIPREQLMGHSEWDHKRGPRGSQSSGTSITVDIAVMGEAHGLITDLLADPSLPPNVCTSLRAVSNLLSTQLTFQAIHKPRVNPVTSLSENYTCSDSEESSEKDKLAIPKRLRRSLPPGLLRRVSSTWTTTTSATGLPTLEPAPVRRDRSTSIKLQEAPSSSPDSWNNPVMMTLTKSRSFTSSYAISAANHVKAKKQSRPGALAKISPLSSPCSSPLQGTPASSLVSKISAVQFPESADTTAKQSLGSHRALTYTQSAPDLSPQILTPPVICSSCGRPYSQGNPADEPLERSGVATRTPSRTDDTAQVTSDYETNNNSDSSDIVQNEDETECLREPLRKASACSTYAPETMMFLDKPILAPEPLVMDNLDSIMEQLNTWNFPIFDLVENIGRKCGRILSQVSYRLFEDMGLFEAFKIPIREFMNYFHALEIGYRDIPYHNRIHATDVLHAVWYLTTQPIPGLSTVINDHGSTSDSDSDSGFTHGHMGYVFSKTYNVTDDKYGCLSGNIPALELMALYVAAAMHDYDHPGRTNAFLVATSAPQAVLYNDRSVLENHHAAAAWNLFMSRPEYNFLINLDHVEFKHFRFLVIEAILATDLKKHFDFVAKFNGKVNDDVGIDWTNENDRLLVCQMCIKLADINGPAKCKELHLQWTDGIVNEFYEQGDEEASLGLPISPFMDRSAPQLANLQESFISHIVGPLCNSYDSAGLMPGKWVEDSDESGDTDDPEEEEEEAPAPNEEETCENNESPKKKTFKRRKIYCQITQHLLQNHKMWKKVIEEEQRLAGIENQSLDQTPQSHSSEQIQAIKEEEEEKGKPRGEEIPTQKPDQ

In the case of `COc1ccc(CNc2nc(C(=O)Nc3ccc(-n4ccnc4)cc3)nc3sc4c(c23)CCN(C)C4)cc1Cl` [1-59], the IC50 in test [1] is 7600 nM; in test [2], greater than 10000 nM; in test [3] it was 78 nM; in test [4], 3400 nM; at PDE 2, 6100 nM. The compound further displayed an EC50 in the test on thoracic aortas of 7.6 nM.

As for `COc1ccc(CNc2nc(C(=O)NCc3ccccc3)nc3sc4c(c23)CCN(C)C4)cc1Cl` [1-79], the IC50 is greater than 10000 nM in test [1]; 670 nM in test [2]; 16 nM in test [3]; 5100 nM in test [4]; greater than 10000 nM at PDE 2. For the same compound, the response with thoracic aortas was half-maximal at 18 nM (EC50).

Take `COc1ccc(CNc2nc(C(=O)Nc3ccccc3)nc3sc4c(c23)CCN(C(C)C)C4)cc1Cl` [1-75]: the IC50 in test [1] was greater than 10000 nM; in test [2], greater than 10000 nM; in test [3] it was 1.4 nM; in test [4] it was 8400 nM; on PDE 2, greater than 10000 nM. In the test with thoracic aortas, this compound returned an EC50 of 9.3 nM.

Consider `COc1ccc(NC(=O)c2nc(NCc3ccc(OC)c(Cl)c3)c3c4c(sc3n2)CN(C)CC4)cc1` [1-62], for which the IC50 in test [1] was greater than 10000 nM; in test [2], greater than 10000 nM; in test [3], 2.4 nM; in test [4] it was greater than 10000 nM; on PDE 2, greater than 10000 nM. In the test on thoracic aortas, this compound returned an EC50 of 7.2 nM.

Take `CCOC(=O)Cc1nc(NCc2ccc(OC)c(Cl)c2)c2c3c(sc2n1)C(=O)N(C(C)C)CC3` [2-10]: the IC50 in test [1] was 7400 nM; in test [2], greater than 10000 nM; in test [3], 39 nM; in test [4], 8000 nM; at PDE 2, greater than 10000 nM. Further, in the test on thoracic aortas, the EC50 worked out at 18 nM.

Consider `COc1ccc(CNc2nc(C(=O)Nc3ccc(Cl)cc3)nc3sc4c(c23)CCN(C)C4)cc1Cl` [1-61, 5,6,7,8-tetrahydro-4-[(3-chloro-4-methoxy)benzylamino]-7-methylpyrido[4′,3′:4,5]thieno[2,3-d]pyrimidine-2-N-(4-chlorophenyl)carboxamide], for which the IC50 in test [1] is greater than 10000 nM; in test [2], greater than 10000 nM; in test [3], 0.92 nM; in test [4], greater than 10000 nM; at PDE 2, greater than 10000 nM. This compound also displayed a concentration for a half-maximal effect (EC50) in the test with thoracic aortas of 8.7 nM.

In the case of `COc1ccc(CNc2nc(C(=O)Nc3nccs3)nc3sc4c(c23)CCN(C)C4)cc1Cl` [1-57], the IC50 is greater than 10000 nM in test [1]; greater than 10000 nM in test [2]; 0.55 nM in test [3]; greater than 10000 nM in test [4]; greater than 10000 nM at PDE 2. The midpoint of the response in the test on thoracic aortas, the EC50, lay at 2.7 nM.

As to `COc1ccc(CNc2nc(-c3ccc4c(c3)OCO4)nc3sc4c(c23)CCN(Cc2ccccc2)C4)cc1Cl` [1-1], the IC50 was greater than 10000 nM in test [1]; greater than 10000 nM in test [2]; 0.92 nM in test [3]; greater than 10000 nM in test [4]; 3900 nM at PDE 2. The compound also registered a concentration for a half-maximal effect (EC50) in the test on thoracic aortas of 86 nM.

Take `COc1ccc(CNc2nc(-c3cccnc3)nc3sc4c(c23)CCN(Cc2ccccc2)C4)cc1Cl` [1-4]: the IC50 in test [1] is 6100 nM; in test [2] it was greater than 10000 nM; in test [3], 2.6 nM; in test [4] it was 2000 nM; on PDE 2 it was 2700 nM. This compound also yielded an EC50 with thoracic aortas of 19 nM.

Consider `COc1ccc(CNc2nc(C(=O)Nc3ccccc3)nc3sc4c(c23)CCN(C)C4)cc1Cl` [1-72], for which the IC50 in test [1] is greater than 10000 nM; in test [2], greater than 10000 nM; in test [3], 1.8 nM; in test [4], greater than 10000 nM; at PDE 2, greater than 10000 nM. In the test with thoracic aortas, the EC50 turned out to be 7.4 nM.

As for `COc1ccc(CNc2nc(C(N)=O)nc3sc4c(c23)CCN(C)C4)cc1Cl` [1-83], the IC50 in test [1] is greater than 10000 nM; in test [2], 1300 nM; in test [3] it was 75 nM; in test [4], greater than 10000 nM; on PDE 2, 3100 nM.

Take `CCOC(=O)N1CCc2c(sc3nc(-c4cccnc4)nc(NCc4ccc(OC)c(Cl)c4)c23)C1` [1-15, 5,6,7,8-tetrahydro-4-[(3-chloro-4-methoxy)benzylamino]-7-ethoxycarbonyl-2-(3-pyridyl)pyrido[4′,3′:4,5]thieno[2,3-d]pyrimidine]: in the test with thoracic aortas, the EC50 is 2.1 nM.
